These results are taken from ChEMBL document CHEMBL1201862, “PubChem BioAssay data set” (2004).

Data set [1] in a line: luciferase reporter signal suppression in cells – H4 neuroglioma cells, luminescence, dose response (AID 1990). The data set is classed as functional, cell-based.
Data set [2] can be described thus: Luminescence Cell-Based Dose Response HTS to Identify Inhibitors of 5'UTR Stem-Loop Driven Prion Protein mRNA Translation in H4 Neuroglioblastoma Cells. [Related pubchem assays: 1827 (Project Summary), 1813 (Primary HTS)]. The data set is classed as functional.
Data set [3] can be described thus: alpha-synuclein stem-loop luciferase translation blockers – H4 neuroglioma cells, luminescence, confirmation (AID 1988). The data set is classed as functional, cell-based.
The target of data set [4] is T1, Rac GTPase-activating protein 1 (Homo sapiens, UniProt Q9H0H5).
T1 sequence (Q9H0H5 whole entry): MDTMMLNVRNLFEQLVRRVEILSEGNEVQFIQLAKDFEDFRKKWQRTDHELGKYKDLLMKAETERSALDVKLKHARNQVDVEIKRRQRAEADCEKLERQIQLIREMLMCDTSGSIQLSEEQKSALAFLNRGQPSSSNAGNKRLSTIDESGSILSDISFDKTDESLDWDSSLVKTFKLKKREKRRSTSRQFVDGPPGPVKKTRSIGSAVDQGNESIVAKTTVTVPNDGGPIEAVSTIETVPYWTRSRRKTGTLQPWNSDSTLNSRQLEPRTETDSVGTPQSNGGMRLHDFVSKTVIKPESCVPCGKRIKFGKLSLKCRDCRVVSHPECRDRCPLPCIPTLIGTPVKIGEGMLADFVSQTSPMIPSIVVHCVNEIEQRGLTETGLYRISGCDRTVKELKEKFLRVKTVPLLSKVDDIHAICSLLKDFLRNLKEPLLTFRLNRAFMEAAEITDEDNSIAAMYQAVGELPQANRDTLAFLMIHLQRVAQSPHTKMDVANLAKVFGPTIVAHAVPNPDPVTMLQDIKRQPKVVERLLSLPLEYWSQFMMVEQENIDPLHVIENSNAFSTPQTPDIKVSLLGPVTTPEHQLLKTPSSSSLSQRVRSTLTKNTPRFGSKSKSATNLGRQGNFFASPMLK
Put plainly: blockers of MgcRacGAP-driven Rac1 GTP hydrolysis – biochemical, ADP Hunter fluorescence, primary and confirmatory, confirmation (AID 624330). The data set is classed as functional.

In data set [5] the target is Cytochrome P450 2C19 (Homo sapiens, UniProt P33261). Put plainly: Cytochrome panel assay with activity outcomes. Panel member name: p450-cyp2c19 Compounds with AC50 equal or less than 10 uM are considered active. The data set is classed as functional.
The target in data set [6] is Cytochrome P450 2C9 (Homo sapiens, UniProt P11712).
Data set [7] relates to INS1. Put plainly: INS-1E survival protection against cytokine death – cell-based, luminescence, retest, dose response (AID 449756).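 Further: cell death triggered by IL-1 beta plus TNF-alpha plus IFN-gamma mixture; protective hits raise ATP signal compared with cytokine alone wells.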 Particulars: Rattus norvegicus. The data set is classed as functional.
The nature of data set [8]: viability of uninfected HEp-2 cells – cell-based, HTS, cytotoxicity control for RSV inhibitor project, dose response (AID 2410). The data set is classed as functional. Particulars: human respiratory syncytial virus.
Data set [9] in a line: Luminescence Cell-Based Dose Retest to Confirm Inhibitors of Cancer Stem Cells. [Related pubchem assays (depositor defined):AID2717, AID2721]. The data set is classed as functional. As to conditions: Homo sapiens.
Data set [10] can be described thus: NIH-3T3 fibroblast cytotoxicity, dose response, cytotoxicity control, cell-based, fluorescence, Alamar Blue, secondary assay (AID 2327).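 Further: NIH-3T3 mouse fibroblasts cultured with fluconazole at 8 µg/mL.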 The data set is classed as functional.
Data set [11] is described as follows: Trypanosoma cruzi growth suppression in host cells – NIH3T3 host cells, beta-gal luminescence, confirmation (AID 2044).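 Further: intracellular parasites grown in NIH/3T3 mouse fibroblasts as host cells; luminescent beta-galactosidase reporter signal from transgenic T. cruzi replicating inside host cells; inhibitors lower the luminescence signal.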 The data set is classed as functional, cell-based.
A short description of data set [12]: NIH3T3 cell viability loss – ATP luminescence, mouse fibroblasts, counter-screen, dose response (AID 2010).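 Further: cells exposed to compound for about 90 hours before reading.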 The data set is classed as functional, cell-based. Background: The purpose of a counterscreen is to sort out artefacts and off-target activity.
Data set [13] can be described thus: fluconazole-exposed Candida albicans growth modulators – fluorescence, retest, confirmation (AID 2467). The data set is classed as functional, cell-based.
The target of data set [14] is Paired box protein Pax-8 (Homo sapiens, UniProt Q06710). The data set can be described thus: PAX8 transcriptional activity inhibition in RMG-I – RMG-I cells, luciferase, cherry-pick, dose response (AID 687027).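 Further: luciferase reporter driven by Pax8 target thyroperoxidase promoter measured by SteadyGlo luminescence.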 The data set is classed as functional, cell-based.

Calls of active or inactive are those of the source.

Sequence of Paired box protein Pax-8 (Q06710 whole entry): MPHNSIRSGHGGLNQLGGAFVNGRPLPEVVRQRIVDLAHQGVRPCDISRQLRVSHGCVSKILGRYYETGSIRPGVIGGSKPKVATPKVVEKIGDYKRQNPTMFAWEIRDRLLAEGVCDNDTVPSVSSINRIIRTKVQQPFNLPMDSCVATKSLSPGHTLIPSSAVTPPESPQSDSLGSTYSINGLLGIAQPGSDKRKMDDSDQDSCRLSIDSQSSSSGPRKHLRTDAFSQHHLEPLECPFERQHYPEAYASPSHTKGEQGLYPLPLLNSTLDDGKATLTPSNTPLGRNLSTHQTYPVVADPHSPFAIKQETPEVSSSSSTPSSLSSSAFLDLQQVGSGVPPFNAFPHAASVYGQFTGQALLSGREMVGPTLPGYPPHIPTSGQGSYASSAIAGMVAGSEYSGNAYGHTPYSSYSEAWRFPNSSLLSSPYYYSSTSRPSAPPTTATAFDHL
Sequence of Cytochrome P450 2C19 (P33261 whole entry): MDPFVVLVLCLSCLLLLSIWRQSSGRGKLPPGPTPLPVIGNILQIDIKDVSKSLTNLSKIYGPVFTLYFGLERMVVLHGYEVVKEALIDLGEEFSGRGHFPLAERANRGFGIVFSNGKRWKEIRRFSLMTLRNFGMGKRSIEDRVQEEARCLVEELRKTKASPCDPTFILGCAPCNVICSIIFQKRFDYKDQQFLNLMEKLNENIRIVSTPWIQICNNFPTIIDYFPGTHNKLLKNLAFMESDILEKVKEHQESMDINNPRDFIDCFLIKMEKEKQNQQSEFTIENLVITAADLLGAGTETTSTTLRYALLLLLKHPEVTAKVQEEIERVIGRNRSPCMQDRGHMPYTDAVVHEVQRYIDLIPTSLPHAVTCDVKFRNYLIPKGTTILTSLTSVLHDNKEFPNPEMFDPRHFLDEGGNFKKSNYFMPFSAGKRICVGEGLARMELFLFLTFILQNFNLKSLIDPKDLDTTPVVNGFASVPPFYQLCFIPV
Sequence of Cytochrome P450 2C9 (P11712 whole entry): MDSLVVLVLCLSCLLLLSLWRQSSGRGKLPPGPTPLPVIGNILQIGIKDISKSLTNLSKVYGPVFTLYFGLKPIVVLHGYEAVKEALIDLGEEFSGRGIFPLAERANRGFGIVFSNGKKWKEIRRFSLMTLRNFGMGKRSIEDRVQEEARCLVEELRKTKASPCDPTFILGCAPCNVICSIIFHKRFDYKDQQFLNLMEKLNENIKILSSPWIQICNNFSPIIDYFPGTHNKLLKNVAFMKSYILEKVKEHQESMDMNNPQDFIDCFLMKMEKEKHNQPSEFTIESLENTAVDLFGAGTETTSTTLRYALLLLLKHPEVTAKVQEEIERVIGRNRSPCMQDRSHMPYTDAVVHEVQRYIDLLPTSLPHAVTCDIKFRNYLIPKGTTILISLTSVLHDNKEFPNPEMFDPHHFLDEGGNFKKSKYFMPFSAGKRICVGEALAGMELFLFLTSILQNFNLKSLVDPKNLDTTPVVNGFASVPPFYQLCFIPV

For `COc1cccc(C(=O)Nc2cccc(OCC(=O)O)c2)c1`, the EC50 in [1] is > 120 µM (not active); in [2] it was > 120 µM (not active); in data set [3] it was 25.9 µM (active).
As for `O=C(Nc1cc(Br)c(O)c(Br)c1)c1cccc(NC(=O)c2ccco2)c1`, the IC50 in data set [4] was 95.2 µM (active).
Take `COC(=O)C1=C(CSc2nc3ccccc3o2)NC(=O)NC1c1cc(C)ccc1C` (configuration not stated): the EC50 in data set [1], in data set [2] and in data set [3] was > 120 µM (not active) throughout.
As to `Cc1cccc(NC(=O)c2ccccc2OCC(=O)c2ccc(F)cc2)c1`, the EC50 in [1], in [2] and in data set [3] was > 120 µM (not active) throughout.
Take `CCCCN1C(=O)/C(=C/c2ccc(N(C)C)cc2)C(=O)N(Cc2ccco2)C1=O`: the AC50 in data set [5] (read-out: AC50) is 31.6 µM (inconclusive); in data set [6], 35.5 µM (inconclusive).
As for `CN(C)S(=O)(=O)c1cccc(NC2=NN=C(c3ccccc3)CS2)c1`, in [7], the AC50 was 7.27 µM (active).
`COc1cccc(Nc2nc(-c3cccs3)nc3ccccc23)c1`: in [8], the CC50 is 13.9 µM (active). In [9], the AC50 was 3.42 µM (active).
As to `O=C(NNC(=O)c1ccccc1O)c1ccc(Cl)cc1`, in data set [6], the AC50 was 20 µM (inconclusive).
On to `CN(C)S(=O)(=O)c1ccc(N2C(=O)CC2(/C=C/c2ccccc2)C(=O)NC2CCCC2)cc1` (configuration not stated), for which the EC50 in data set [1], in [2] and in [3] was > 120 µM (not active) each time.
Take `COc1ccccc1N1CCN(S(=O)(=O)CCNC(=O)c2cc(OC)c(OC)c(OC)c2)CC1`: the EC50 in [1] was > 120 µM (not active); in data set [2] it was > 120 µM (not active); in data set [3], 10.6 µM (active).
With `Cn1cnc2cc(NCc3ccccc3O)ccc21`, in data set [4], the IC50 is 93.9 µM (active).
Take `O=C(NC1CC1)c1ccc(-c2nc3ccccc3s2)s1`: the results for the EC50 in data set [1], in [2] and in [3] were 4.13 µM (active), 7.52 µM (active) and 13.6 µM (inconclusive), respectively.
For the compound `Cc1ccc(S(=O)(=O)[N-]C2=C([n+]3ccn(CCC(C)C)c3)C(=O)c3ccccc3C2=O)cc1`, the AC50 in [7] was 5.8 µM (active).
On to `O=c1c2sc3ccccc3c2[nH]c(=S)n1CCN1CCOCC1`, for which the IC50 in data set [4] was 91.3 µM (active).
Turning to `CCC1CSC(Nc2ccc(C(=O)/C=C/c3ccc(Br)cc3)cc2)=N1` (configuration not stated), the AC50 in data set [9] was 2 µM (active).
Regarding `COc1ccc(CCNCCN2CCOCC2)cc1`, the IC50 in data set [4] is 77.1 µM (active).
Take `Cc1nc(S(=O)(=O)NC2CCCCC2)c(C#N)c(C)c1Cl`: in data set [6], the AC50 was 28.2 µM (inconclusive).
On the same count and under the same terms, in the case of `O=[N+]([O-])c1ccc(CSCc2ccc(Cl)cc2)cc1` it was 7.94 µM (inconclusive).
`CCN1CCN(C(=O)c2ccc(CSc3ccc(C)cc3)cc2)CC1`: the EC50 in data set [10] is > 150 µM (inactive). In data set [9], the AC50 is < 0.16 µM (active).
In the case of `Cc1c(C(=O)NCc2ccc3c(c2)OCO3)oc2ccc(S(=O)(=O)N3CCCCCC3)cc12`, the EC50 was 14.9 µM (active) in data set [1]; 15 µM (active) in data set [2]; 25.5 µM (active) in [3]; 0.775 µM (active) in [11]; > 60 µM (not active) in data set [12].
Take `CN(C)N1C(N)=C(C#N)C(c2cccc3ccccc23)C2=C1CC(c1ccccc1)CC2=O` (configuration not stated): in data set [9], the AC50 is 1.15 µM (active).
Regarding `Cc1ccccc1-[n+]1c(-c2ccccc2)cc(-c2ccccc2)cc1-c1ccccc1.[O-][Cl+3]([O-])([O-])[O-]`, the EC50 in [10] is 36.3 µM (active); in [13], 0.21 µM (active). The AC50 in data set [7] was 2.26 µM (active).
With `CN(Cc1c(F)cccc1Cl)C(=O)c1cc2ccccc2o1`, in data set [7], the AC50 is > 260 µM (inactive).
With `CCOc1ccccc1CN1CCC(N2CCOCC2)CC1`, the IC50 in [4] is 83 µM (active).
Still for that read-out and setting: to `C=CC[n+]1c(/C=C/c2ccc(OC(C)=O)c(OC)c2)ccc2ccccc21` belongs 61.2 µM (active).
As to `CC(Cc1ccccc1)NC(=O)CSc1nc2nc3c(cc2c(=O)n1-c1ccccc1)COC(C)(C)C3` (configuration not stated), the AC50 was 35.5 µM (inconclusive) in data set [5] (read-out: AC50) and 15.8 µM (inconclusive) in [6].
Consider `c1ccc(CSc2nnc(-c3sccc3-n3cccc3)o2)cc1`, for which the AC50 in data set [6] was 39.8 µM (inconclusive).
`COc1ccc(N2CCCC2)c(NC(=O)COc2ccccc2Cl)c1`: the EC50 in [1] is 13.9 µM (active); in [2] it was > 120 µM (not active); in data set [3] it was 13.1 µM (active).
For `Cn1c(=S)c2nc(SCCN3CCCC3)[nH]c2n(C)c1=O`, the concentration at half-maximal activity (AC50) in data set [6] is 3.16 µM (inconclusive).
On the same count and under the same terms, to `Nc1cc2c(nc3c4ccccc4c(N)cc3[n+]2-c2cccc3ccccc23)c2ccccc12.Nc1cc2c(nc3c4ccccc4ccc3[n+]2-c2cccc3ccccc23)c2ccccc12` belongs 2.51 µM (inconclusive); to `Cc1ccc2cc(CCNC(=O)c3ccc(Br)o3)c(O)nc2c1`, 10 µM (inconclusive).
As for `COc1cc2cc(-c3ccc(O)cc3O)nc(C)c2cc1OC`, the concentration for half-maximal inhibition (IC50) in data set [4] was 29.9 µM (active).
Turning to `Nc1nc(-c2ccc(NC(=O)c3ccco3)cc2)cs1`, the EC50 in data set [2] was 11.7 µM (inconclusive); in data set [3], 8.2 µM (inconclusive).
For `CC(C)c1nnc(-c2ccc(Cl)cc2)c(N(C)C)n1`, in data set [6], the AC50 was 10 µM (inconclusive).
In the case of `O=c1[nH]c(=O)n(Cc2ccco2)c2c1C(C(F)(F)F)(C(F)(F)F)NC(c1ccc(F)cc1)=N2`, the concentration at half-maximal activity (AC50) in [7] was 3.11 µM (active).
The same measure, in the same setting: in the case of `CN(C)CCCN(C(=O)COc1ccc(Cl)cc1)c1nc2cc3c(cc2s1)OCO3` it was 14.2 µM (active).
Consider `COc1ccc(/C=C/c2nc3cc(-c4ccccc4)ccc3o2)cc1O`, for which, in [8], the CC50 is 36.3 µM (active). The AC50 in [9] was 4.06 µM (active).
For the compound `CNc1oc(-c2ccc(Cl)cc2)nc1P(=O)(c1ccccc1)c1ccccc1`, the AC50 in data set [9] is 7.13 µM (active).
On the same count and under the same terms, in the case of `O=C(COCc1cc(-c2ccc3c(c2)OCO3)on1)N1CCN(c2cccc(C(F)(F)F)c2)CC1` it was 1.51 µM (active).
On to `CCCCCSc1nnc(C)c(O)n1`, for which the AC50 in data set [5] (read-out: AC50) is 39.8 µM (inconclusive); in data set [6], 8.91 µM (inconclusive).
`CCCCN1C(=O)C(NC(=O)c2cccnc2)(C(F)(F)F)C2=C1CC(C)(C)CC2=O` (configuration not stated): the half-maximal activity concentration (AC50) entry in [5] was “inconclusive”; in [6] it was 35.5 µM (inconclusive).
On to `Cc1cccc(C(=O)NN(C)c2nc(-c3ccccc3)nnc2C(F)(F)F)c1`, for which the AC50 in data set [5] (read-out: AC50) is 0.708 µM (inconclusive); in [6], 0.316 µM (inconclusive).
For `COc1ccc(NC(=O)c2cc3ccc(O)cc3o/c2=N\O)cc1`, the AC50 in data set [9] was 5.22 µM (active). For the same compound, the IC50 in data set [4] was 42 µM (active).
As for `C[C@@H]1CN([C@@H](C)CO)C(=O)c2cc(NC(=O)NC3CCCCC3)ccc2O[C@@H](C)CCCCO[C@H]1CN(C)Cc1ccc(C(F)(F)F)cc1`, in [14], the AC50 is 11.5 µM (active).
Still for that read-out and setting: to `C[C@@H]1CN([C@H](C)CO)C(=O)c2c(c3ccccc3n2C)-c2ccccc2CO[C@@H]1CN(C)C` belongs 66.1 µM (active).
On the same count and under the same terms, to `C[C@@H]1CN([C@H](C)CO)C(=O)c2cc(NC(=O)Nc3ccc(F)cc3)ccc2O[C@@H](C)CCCCO[C@H]1CN(C)C(=O)Nc1ccc(F)cc1` belongs 10.8 µM (active).
As for `C/C(=N\NC(=O)c1ccc(NS(=O)(=O)c2cccs2)cc1)c1ccccn1`, in [7], the AC50 is 3.08 µM (active).
With `C/C(=C\C(=O)c1ccccc1)Nc1ccc(O)cc1`, the IC50 in data set [4] was 20.2 µM (active).
`C=CCNC(=S)N/N=C/c1ccc(-c2ccc(OC)cc2)o1`: the EC50 in data set [10] is > 150 µM (inactive); in data set [13] it was > 38 µM (not active); in data set [11], 1.76 µM (active); in [12], > 60 µM (not active).

By EC50 is commonly meant the concentration at which the effect is half-maximal. The term IC50 denotes the concentration that inhibits the measured activity by half. By AC50 is commonly meant the concentration giving half of the maximal activity seen. Broadly, the CC50 is the concentration at which the toxic effect on the cells reaches its halfway point.
